Measurements published in ChEMBL document CHEMBL1150011 (Bioorg Med Chem Lett, 1996).

Legend:
[1] = test system: Rattus norvegicus; experiment: Diuretic activity in rat was determined by measuring urine volume at a dose of 10 mg/kg upon oral administration; assay type: functional
[2] = test system: Rattus norvegicus; experiment: Diuretic activity in rat was determined by measuring sodium excretion at a dose of 10 mg/kg upon oral administration; assay type: functional, Urine
[3] = biological target: T1, Adenosine receptor A1 (Rattus norvegicus, UniProt P25099); experiment: Inhibition of [3H]CHA binding against Adenosine A1 receptors of rat cortical membranes; assay type: cell membranes, Membrane
T1 sequence (P25099 whole entry): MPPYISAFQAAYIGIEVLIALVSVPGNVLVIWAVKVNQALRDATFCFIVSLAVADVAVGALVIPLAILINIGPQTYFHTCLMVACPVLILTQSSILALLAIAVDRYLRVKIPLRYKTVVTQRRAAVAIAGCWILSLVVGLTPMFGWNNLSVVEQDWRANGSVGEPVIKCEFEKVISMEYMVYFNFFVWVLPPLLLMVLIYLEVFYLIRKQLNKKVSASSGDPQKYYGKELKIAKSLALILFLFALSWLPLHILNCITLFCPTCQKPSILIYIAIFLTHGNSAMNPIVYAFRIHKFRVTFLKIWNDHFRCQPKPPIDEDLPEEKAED

[4] = biological target: T2, Adenosine receptor A1 (Cavia porcellus, UniProt P47745); experiment: Inhibition of adenosine induced negative inotropic activity against guinea-pig atria (Adenosine A1 receptor); assay type: functional
T2 sequence (P47745 whole entry): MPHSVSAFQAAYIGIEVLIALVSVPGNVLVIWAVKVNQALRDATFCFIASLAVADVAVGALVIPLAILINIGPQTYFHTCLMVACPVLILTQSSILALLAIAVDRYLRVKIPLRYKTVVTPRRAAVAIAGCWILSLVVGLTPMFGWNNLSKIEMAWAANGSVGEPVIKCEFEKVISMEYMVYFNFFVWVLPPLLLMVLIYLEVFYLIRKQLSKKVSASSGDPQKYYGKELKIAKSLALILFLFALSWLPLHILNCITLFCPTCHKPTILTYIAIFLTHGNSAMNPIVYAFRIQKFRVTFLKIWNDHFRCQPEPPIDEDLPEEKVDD

[5] = biological target: T2, Adenosine receptor A1; experiment: Inhibition of adenosine induced negative inotropic activity against guinea-pig atria (Adenosine A1 receptor) at 10 nM; assay type: functional

Structure (SMILES) | IC50 [3] [nM] | IC50 [4] [nM] | IC50 [5] [nM] | Urine volume (% of control) [1] [%] | Sodium excretion (% of control) [2] [%]
CC[C@@H]1CCCCN1C(=O)/C=C/c1c(-c2ccccc2)nn2ccccc12 | – | – | – | 201 | 220
O=C(/C=C/c1c(-c2ccccc2)nn2ccccc12)N1CCCCC1 | – | – | – | 195 | 179
O=C(/C=C/c1c(-c2ccccc2)nn2ccccc12)N1CCCC[C@H]1CCO | 17.2 | 0.56 | – | 272 | 280
CC[C@H]1CCCCN1C(=O)/C=C/c1c(-c2ccccc2)nn2ccccc12 | – | – | – | 94 | 91

Further lines, with some results ahead:

IC50 [3] [nM] | IC50 [4] [nM] | IC50 [5] [nM] | Structure (SMILES) | Urine volume (% of control) [1] [%] | Sodium excretion (% of control) [2] [%]
10100 | – | – | O=C(/C=C/c1c(-c2ccccc2)nn2ccccc12)N1CCCC[C@@H]1CCO [FK453] | 96 | 96
– | – | 91 | CCC1CCCCN1C(=O)/C=C/c1c(-c2ccccc2)nc2sc(C)nn12 (stereo unspecified) | 242 | 278
